Assay results: PMC10810651, “Discovery of novel and potent CDK8 inhibitors for the treatment of acute myeloid leukaemia” (Journal of Enzyme Inhibition and Medicinal Chemistry, 2024)

Columns and labels:
HCT-116 = assay: Antiproliferative CCK-8 assay, HCT-116; type: cell-based; settings: Homo sapiens; HCT-116, CCK-8 assay, means ± SD; read-out: GC50 (the source's name)
From the text: (§1) Compounds12, 13 and 30 were selected for further cell activity assessments based on the enzymatic activity assessment results. molm-13 and MV4-11(acute myeloid lineage leukaemia cells), MGC-803 (gastric cancer cell), MDA-MB-231(breast cancer cell), A375 (melanoma cell), A549 (lung cancer cell), HCT-116, SW-480 and HT-29 (colorectal cancer cells) were selected to evaluate antitumor activity in vitro, GES-1 (gastric mucosal epithelial cell) was selected to evaluate toxicity in vitro.
(§2) CO2 atmosphere incubator for 24 h. Then, medium with compound at the concentrations of 100, 20, 4, 0.8, 0.016 μM was added into each well for another 48 h and incubated with CCK-8 (10 μL) for 2 h at 37 °C. The absorbance value at 450 nm was measured by the microplate reader (PerkinElmer Envision). […]

CDK7 = CDK7 (Homo sapiens, UniProt P50613); assay: CDKs selectivity, CDK7; type: biochemical
From the text: (§3) CDK7 and CDK9 with the same transcription function and CDK2 and CDK6 were selected to evaluate the selectivity of compound 12.

CDK8 = CDK8 (Homo sapiens, UniProt P49336); assay: Cellular thermal shift assay; type: cell-based; set-up: endogenous in cells; host or cells: HCT-116; settings: HCT-116 cells, 5 μM, 6 h; DMSO 49 °C; western blot
Experimental: Here, in order to identify compound 12 could bind CDK8, HCT-116 cells, a CDK8 high expression cell line, were treated with 5 μM compound 12 and DMSO for 6 h, respectively. Cell suspension was divided into 11 PCR tubes equally, then the samples were heated from 37 to 67 °C at intervals of 3 °C and the results were analysed through western blot. […] However, CDK8 was degraded almost completely at 55 °C after treated with compound 12, which indicated compound 12 enhanced the thermal stability of CDK8 and compound 12 could bind CDK8.
CO2 atmosphere incubator for 24 h. Then, medium with compound at the concentrations of 100, 20, 4, 0.8, 0.016 μM was added into each well for another 48 h and incubated with CCK-8 (10 μL) for 2 h at 37 °C. The absorbance value at 450 nm was measured by the microplate reader (PerkinElmer Envision).
The kinase inhibition was detected by ADP-Glo™ Kinase Assay (Promega) using a black 384-well plate. […] The data was collected by the microplate reader. […]
were broken by ultr asonic treatment and centrifuged at 12000 rpm for 20 min. The supernatant was analyzed by western blot. […]
After co-treated with 2 μM biotinylated compound and compound 12 for 12 h, HCT-116 cells were lysed with NP-40 containing PMSF and centrifuged at 14000 r for 30 min at 4 °C. […] The samples were analyzed by western blot.

CDK9 = CDK9 (Homo sapiens, UniProt P50750); assay: CDKs selectivity, CDK9; type: biochemical
From the text: as §3

CDK6 = CDK6 (Homo sapiens, UniProt Q00534); assay: CDKs selectivity, CDK6; type: biochemical
From the text: as §3

SW480 = assay: Antiproliferative CCK-8 assay, SW480; type: cell-based; settings: Homo sapiens; SW480, CCK-8 assay, means ± SD; read-out: GC50 (the source's name)
From the text: as §1, §2

CYP 2D6 = CYP 2D6 (Homo sapiens, UniProt P10635); assay: CYP inhibition activity, 2D6; type: in vitro ADME
From the text: Table 7. CYP inhibition activity. | column: IC50 (μM) / 2D6

CYP3A4/5 = assay: CYP inhibition activity, 3A4/5 (M); type: in vitro ADME; settings: human; CYP 3A4/5 (M)
From the text: Table 7. CYP inhibition activity. | column: IC50 (μM) / 3A4/5 (M)

STAT5 S726 = assay: Phosphorylation of STAT5 S726, western blot; type: cell-based; settings: HL-60 cells, 12 h
Experimental: It has been reported that CDK8 could specifically target the transactivation domain of STAT1 at Ser727 phosphorylation. HCT-116 cells were treated with compounds 12 with different concentrations of 1 μM, 2 μM, 4 μM separately to verify compound 12 could inhibit the phosphorylation of STAT1 Ser727. […] It’s reported that CDK8 was also involved in S726 phosphorylation of STAT5 in AML cells.
Figure 6. Compound 12 inhibited phosphorylation of STAT1 S727 and STAT5 S726. (A) Compound 12 suppressed the phosphorylation of STAT1 S727 in a dose-dependent manner. HCT-116 cells were treated with compound for 12 h. (B) Compound 12 suppressed the phosphorylation of STAT5 S726 in a dose dependent manner. HL-60 cells were treated with or without compound for 12 h. The samples were analysed by Western blot.
1.7 The effect of compound on phosphorylation of STAT1 S727
HCT-116 cells were seeded into 60 mm cultural dishes at a density of 1.5×10^6 cells per dishes. […] Levels of total STAT1, phosphorylated STAT1 S727, Y701 and GAPDH were analyzed. […]
Levels of total STAT5, phosphorylated STAT5 S726 and GAPDH were analyzed.
The results were expressed as the means ± SEMs (SPSS software), and the differences between groups were evaluated using Turkey’s method (GraphPad Software). […]

A549 = assay: Antiproliferative CCK-8 assay, A549; type: cell-based; settings: Homo sapiens; A549, CCK-8 assay, means ± SD; read-out: GC50 (the source's name)
From the text: as §1, §2

CDK9, sequence (P50750 whole entry): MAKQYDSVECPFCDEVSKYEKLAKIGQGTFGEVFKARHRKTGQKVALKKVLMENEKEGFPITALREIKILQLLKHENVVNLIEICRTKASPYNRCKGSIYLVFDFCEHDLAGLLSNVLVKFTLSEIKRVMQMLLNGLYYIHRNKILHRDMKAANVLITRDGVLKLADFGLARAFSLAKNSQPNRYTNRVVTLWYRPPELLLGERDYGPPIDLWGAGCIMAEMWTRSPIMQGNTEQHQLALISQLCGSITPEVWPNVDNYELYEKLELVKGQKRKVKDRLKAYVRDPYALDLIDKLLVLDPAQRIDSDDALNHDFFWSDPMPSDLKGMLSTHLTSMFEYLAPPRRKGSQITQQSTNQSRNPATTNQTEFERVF
CDK6, sequence (Q00534 whole entry): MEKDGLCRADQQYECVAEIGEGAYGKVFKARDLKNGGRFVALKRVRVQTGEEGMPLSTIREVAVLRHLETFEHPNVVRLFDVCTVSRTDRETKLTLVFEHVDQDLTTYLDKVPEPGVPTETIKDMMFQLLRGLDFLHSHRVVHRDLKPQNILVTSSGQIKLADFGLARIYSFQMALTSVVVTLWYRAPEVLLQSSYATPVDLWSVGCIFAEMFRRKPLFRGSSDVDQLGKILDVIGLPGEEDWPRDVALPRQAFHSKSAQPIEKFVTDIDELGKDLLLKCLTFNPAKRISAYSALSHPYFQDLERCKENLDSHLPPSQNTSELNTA
CDK7, sequence (P50613 whole entry): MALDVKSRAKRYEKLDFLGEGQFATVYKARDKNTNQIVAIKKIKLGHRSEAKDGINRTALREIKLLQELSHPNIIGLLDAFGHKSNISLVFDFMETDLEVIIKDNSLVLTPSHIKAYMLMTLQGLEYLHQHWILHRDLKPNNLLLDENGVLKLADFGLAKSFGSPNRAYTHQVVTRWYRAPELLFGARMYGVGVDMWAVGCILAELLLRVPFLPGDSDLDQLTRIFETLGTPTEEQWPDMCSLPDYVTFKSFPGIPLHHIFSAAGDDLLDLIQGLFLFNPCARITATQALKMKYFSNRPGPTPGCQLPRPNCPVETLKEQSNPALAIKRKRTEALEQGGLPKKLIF
CDK7, sequence (P51946 whole entry partner): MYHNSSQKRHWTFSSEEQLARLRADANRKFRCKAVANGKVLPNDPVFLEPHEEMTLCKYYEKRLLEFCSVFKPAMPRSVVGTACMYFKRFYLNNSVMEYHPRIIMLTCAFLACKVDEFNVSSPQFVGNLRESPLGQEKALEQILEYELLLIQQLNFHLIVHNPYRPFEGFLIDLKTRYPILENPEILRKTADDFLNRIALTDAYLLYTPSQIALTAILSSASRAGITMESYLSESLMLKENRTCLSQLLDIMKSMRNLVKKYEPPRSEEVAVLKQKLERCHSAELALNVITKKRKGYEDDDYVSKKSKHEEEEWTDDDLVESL
CDK7, sequence (P51948 whole entry partner): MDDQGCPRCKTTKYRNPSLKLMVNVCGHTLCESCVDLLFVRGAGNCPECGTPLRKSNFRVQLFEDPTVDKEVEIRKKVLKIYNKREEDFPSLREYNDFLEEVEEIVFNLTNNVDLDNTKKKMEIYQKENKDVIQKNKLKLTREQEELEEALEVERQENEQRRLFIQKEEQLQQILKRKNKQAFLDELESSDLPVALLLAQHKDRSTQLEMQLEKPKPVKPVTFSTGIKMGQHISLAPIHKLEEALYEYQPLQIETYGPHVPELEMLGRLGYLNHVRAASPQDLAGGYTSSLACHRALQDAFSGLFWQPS
CDK8, sequence (P49336 whole entry): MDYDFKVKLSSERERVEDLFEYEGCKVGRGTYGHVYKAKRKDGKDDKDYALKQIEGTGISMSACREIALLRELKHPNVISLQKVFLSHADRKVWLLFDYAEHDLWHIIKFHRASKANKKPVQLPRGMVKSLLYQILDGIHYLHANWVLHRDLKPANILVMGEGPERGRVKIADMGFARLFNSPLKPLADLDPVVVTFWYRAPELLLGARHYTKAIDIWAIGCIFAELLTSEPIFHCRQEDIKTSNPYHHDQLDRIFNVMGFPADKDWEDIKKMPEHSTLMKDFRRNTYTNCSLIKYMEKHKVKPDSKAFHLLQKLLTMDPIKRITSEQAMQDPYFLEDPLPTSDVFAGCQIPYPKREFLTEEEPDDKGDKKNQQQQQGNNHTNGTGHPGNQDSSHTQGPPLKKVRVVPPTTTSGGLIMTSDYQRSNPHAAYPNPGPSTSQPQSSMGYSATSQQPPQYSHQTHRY
CYP 2D6, sequence (P10635 whole entry): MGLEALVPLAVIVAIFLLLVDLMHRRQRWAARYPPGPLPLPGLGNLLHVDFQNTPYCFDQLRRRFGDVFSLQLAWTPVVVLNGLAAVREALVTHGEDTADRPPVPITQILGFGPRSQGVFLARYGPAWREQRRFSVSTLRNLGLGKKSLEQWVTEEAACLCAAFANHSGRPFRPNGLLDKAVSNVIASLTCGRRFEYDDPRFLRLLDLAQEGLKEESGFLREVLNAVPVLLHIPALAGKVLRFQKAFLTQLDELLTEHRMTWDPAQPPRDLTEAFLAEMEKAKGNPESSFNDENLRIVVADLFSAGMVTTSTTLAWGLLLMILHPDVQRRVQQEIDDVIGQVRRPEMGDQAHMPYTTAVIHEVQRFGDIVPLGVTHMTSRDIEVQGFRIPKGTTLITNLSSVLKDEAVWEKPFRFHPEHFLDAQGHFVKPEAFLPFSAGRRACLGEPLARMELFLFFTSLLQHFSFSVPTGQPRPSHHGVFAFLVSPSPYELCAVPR

NC(=O)c1cccc(-c2cnc3[nH]cc(-c4ccoc4)c3c2)c1 [Compound 12, 3-(3-(furan-3-yl)-1H-pyrrolo[2,3-b]pyridin-5-yl)benzamide]
IC50 (HCT-116): 3.66 ± 1.94 µM
IC50 (CDK7): 0.301 ± 0.0278 µM
Temperature at which CDK8 was degraded almost completely (CDK8): 55 °C
IC50 (CDK9): 0.474 ± 0.0253 µM
IC50 (CDK6): 0.352 ± 0.0365 µM
IC50 (SW480): 6.05 ± 2.26 µM
IC50 (CYP 2D6): > 50 µM
IC50 (CYP3A4/5): > 5e-05 M
Phosphorylation of STAT5 S726 (STAT5 S726): could inhibit phosphorylation of STAT5 S726 in a dose-dependent manner
IC50 (A549): 15.5 ± 2.78 µM
